Assays:
[1] = format: in vivo; conditions: for t1/2β: single intravenous administration (Ia 50 mg/kg·bw)
Protocol: The inventors conducted preliminary pharmacokinetic study of Compound Ia on Beagle dogs. The Beagle dogs were allowed to drink water freely but not to eat food for 16 hours before and 4 hours after the intravenous injection of 50 mg/kg·bw of the compound. Intravenous blood sampling took place at 0, 0.083, 0.17, 0.25, 0.5, 1, 1.5, 2, 3, 4, 6, 9, 12 hours, respectively, after the injection, each blood sample being 3 mL. Thereafter the dogs were given the drugs every other week and blood samples were taken according to the above manner. The blood samples were added to the centrifuge tubes containing heparin and thoroughly mixed by centrifuging at 4000 rpm for 10 minutes. The blood plasma was separated and an abstraction agent (methanol/ethyl acetate 3:2 V/V) was added to and mixed with it by centrifuging at 10000 rpm for 10 minutes. The top, clear liquid, 20 μL, was taken and analyzed by HPLC.

[2] = Acute toxicity tests on rats; format: in vivo; conditions: intravenous injection
[3] = Stability in aqueous injection solutions at 37° C.; format: physicochemical
Text: (§1) Compared to Compound II, Compound I has better stability in aqueous solution (see Table 2) and in the solid state (See Table 3). Thus Compound I can be stored without freezing or special treatment.

[4] = pH value of aqueous solution; format: physicochemical; conditions: for pH: concentration 0.1 g/mL
Protocol: The pH value of its saturated aqueous solution is 3.2.
At 5° C., sodium carbonate (0.1 g) was dissolved in deionized water (5 mL) in a three-neck flask. Compound II (1 g) was added to the flask with agitation (350 rpm) and the reaction was carried out for 45 minutes. The reaction mixture was discolored with activated carbon and then filtered. The filtration liquid was dropwise added to 80 mL of acetone to precipitate. The precipitation was monitored by an on-line particle analyzing instrument. The mixture was filtered and the solid was washed twice with acetone. Drying under vacuum at 40° C. for 24 hours gave 0.75 g of Compound Ia with a purity of 98.35% (HPLC) and pH 7.3 (concentration 0.1 g/mL).

Type B Chain Coccus = experiment: Vitro bacteriostasis experiment, two-fold agar dilution method; format: cell-based
Protocol: (§2) Vitro bacteriostasis experiments of Compounds Ia, Ib, and Ic were performed using the two-fold agar dilution method.

Shigella = experiment: as above; format: cell-based
Protocol: as §2

Type A Chain Coccus = experiment: as above; format: cell-based
Protocol: as §2

Moraxella Catarrhalis [5] = experiment: as above; format: cell-based
Protocol: as §2

Haemophilus Influenzae = experiment: as above; format: cell-based
Protocol: as §2

Excrement Enterococcus [6] = experiment: as above; format: cell-based
Protocol: as §2

Pneumonia Chain Coccus [7] = experiment: as above; format: cell-based
Protocol: as §2

Pneumonia Chain Coccus [8] = experiment: In-vivo antibacterial activity (protection of rats)
Excrement Enterococcus [9] = experiment: as above
[10] = Stability in the solid state, storage at various temperatures; format: physicochemical
Text: as §1

[11] = Muscle stimulation test on rabbits; parameters: species or system New Zealand rabbits; conditions: rabbit, in vivo
Text: The inventors have conducted the muscle stimulation test of Compounds Ia and II on rabbits. The test is as follows. Eight New Zealand rabbits were divided into three groups. Two groups, containing three rabbits per group, were administrated with Compound Ia and Compound II, respectively. The third group, containing two rabbits, was used as a negative control group. The rabbits were intramuscularly injected with high concentrations of the compounds into the left quadriceps and with low concentration into the right quadriceps. The negative control group was injected with an equal concentration of sodium chloride into the quadriceps of both sides. Each quadriceps was administrated with 1.0 mL once a day for three consecutive days. One or two rabbits from each group were anatomized after 48 hours of the injection. The remaining rabbits were anatomized after the end of the two-week recovery period.

Solubility = format: physicochemical
Text: Its chemical name is 7-(α-((N,N-diisopropylamidino)thio)acetylamino)-3-(((1,2,5,6-tetrahydro-2-methyl-5,6-dioxo-1,2,4-triazin-3-yl)thio)methyl) cephalosporanic acid mono sodium salt (Compound Ia).

Moraxella Catarrhalis [12] = experiment: In-vivo antibacterial activity (protection of rats)
[13] = healthy Beagle dogs, single intravenous administration 50 mg/kg·bw

SMILES | t1/2β ([1]; healthy Beagle dogs) [h] | LD50 [2] [g/kg] | content in aqueous injection solution ([3]; 0 hr) [%] | content in aqueous injection solution ([3]; 0.2 hr) [%] | content in aqueous injection solution ([3]; 1 hr) [%] | content in aqueous injection solution ([3]; 2 hr) [%] | content in aqueous injection solution ([3]; 3 hr) [%] | content in aqueous injection solution ([3]; 4 hr) [%] | pH [4] | MIC90 (Type B Chain Coccus) [mg/L] | MIC90 (Shigella) [mg/L] | MIC90 (Type A Chain Coccus) [mg/L] | MIC90 (Moraxella Catarrhalis [5]) [mg/L] | MIC90 (Haemophilus Influenzae) [mg/L] | MIC90 (Excrement Enterococcus [6]) [mg/L] | MIC90 (Pneumonia Chain Coccus [7]) [mg/L] | further results
CC(=O)OCC1=C(C(=O)O)N2C(=O)[C@@H](NC(=O)CSC(=NC(C)C)NC(C)C)[C@H]2SC1 [cefathiamidine, reference compound] | 0.65 ± 0.03 | 0.8242 |  |  |  |  |  |  |  |  |  |  |  |  |  |  | biological half-life in blood ([1]; Beagle dogs, preliminary pharmacokinetic study): 0.65 hours
CC(C)N=C(NC(C)C)SCC(=O)NC1C(=O)N2C(C(=O)[O-])=C(CSc3nc(=O)c(=O)[nH]n3C)CSC12.CC(C)N=C(NC(C)C)SCC(=O)NC1C(=O)N2C(C(=O)[O-])=C(CSc3nc(=O)c(=O)[nH]n3C)CSC12.[Na+].[Na+] (stereo not drawn) [Compound Ib, disodium 7-(α-((N,N′-diisopropylamidino)thio)acetylamino)-3-(((1,2,5,6-tetrahydro-2-methyl-5,6-dioxo-1,2,4-triazin-3-yl)thio)methyl) cephalosporanate] |  |  | 98.80 | 98.54 | 97.14 | 96.66 | 95.21 | 94.30 | 10.02 | 0.0125 | 4 | 0.1 | 0.5 | 0.5 | 4 | 0.5 | 
CC(C)N(C(=N)SCC(=O)NC1C(=O)N2C(C(=O)[O-])=C(CSc3nc(=O)c(=O)[nH]n3C)CSC12)C(C)C.[K+] (stereo not drawn) [Compound Ic, 7-(α-((N,N-diisopropylamidino)thio)acetylamino)-3-(((1,2,5,6-tetrahydro-2-methyl-5,6-dioxo-1,2,4-triazin-3-yl)thio)methyl) cephalosporanic acid monopotassium salt] |  |  |  |  |  |  |  |  |  | 0.0156 | 4 | 0.1 | 0.5 | 0.5 | 8 | 0.5 | 
CC(C)N(C(=N)SCC(=O)NC1C(=O)N2C(C(=O)[O-])=C(CSc3nc(=O)c(=O)[nH]n3C)CSC12)C(C)C.[Na+] (stereo not drawn) [Compound Ia, 7-(α-((N,N-diisopropylamidino)thio)acetylamino)-3-(((1,2,5,6-tetrahydro-2-methyl-5,6-dioxo-1,2,4-triazin-3-yl)thio)methyl) cephalosporanic acid mono sodium salt] | 2.59 ± 0.04 | 1.7476 | 98.60 | 98.60 | 97.98 | 97.79 | 97.24 | 97.13 | 7.3 | 0.0625 | 4 | 0.5 | 1 | 0.5 | 8 | 0.125 | protection for rats against Pneumonia Chain Coccus (Pneumonia Chain Coccus [8]): excellent protection; AUC [1, 13]: 108.29 ± 18.17 mg·h/L; CIB [1, 13]: 047 ± 0.09 L/kg/h; V1 [1, 13]: 0.25 ± 0.07 L/kg; VB [1, 13]: 1.61 ± 0.30 L/kg; t1/2α [1, 13]: 37.8 ± 7.2 min; Cmax ([1]; healthy Beagle dogs, single intravenous administration 50 mg/kg·bw, plasma): 116.35 ± 12.06 µg/mL; drug concentration after 12 hours of the administration ([1]; healthy Beagle dogs, single intravenous administration 50 mg/kg·bw, plasma, 12 hours): 0.39 ± 0.09 µg/mL; protection for rats against Excrement Enterococcus (Excrement Enterococcus [9]): excellent protection; content after 72 hours in storage ([10]; 10° C.): 96.9%; content after 72 hours in storage ([10]; 40° C.): 96.6%; content after 72 hours in storage ([10]; 60° C.): 96.4%; content after 72 hours in storage ([10]; −5° C.): 97.0%; pH value ([4]; concentration not given): 7.3; muscle irritation observed [11]: slight irritation; solubility in acetone (Solubility): not readily soluble; solubility in anhydrous ethanol (Solubility): not readily soluble; solubility in methanol (Solubility): readily soluble; solubility in water (Solubility): readily soluble; protection for rats against Moraxella Catarrhalis (Moraxella Catarrhalis [12]): excellent protection
